Test results from ChEMBL document CHEMBL4420062, “Tfpi inhibitors and methods of use” (2013).

Assays:
[1] = Stability in human plasma assessed as parent compound remaining after 24 hrs; type: ADME, cell-free; conditions: read-out: Stability
[2] = Stability in mouse plasma assessed as parent compound remaining after 24 hrs; type: ADME, cell-free; conditions: read-out: Stability

Row | Compound | remaining at 24 h [1] | remaining at 24 h [2]
1 | CC(=O)N[C@@H](Cc1ccccc1)C(=O)N[C@@H](CCC(N)=O)C(=O)N[C@@H](CO)C(=O)N[C@@H](CCCCN)C(=O)N1CCC[C@@H]1C(=O)N[C@@H](CC(N)=O)C(=O)N[C@H](C(=O)N[C@@H](Cc1cnc[nH]1)C(=O)N[C@H](C(=O)N1CCC[C@H]1C(=O)N[C@H](C)C(=O)N[C@@H](Cc1ccc(O)cc1)C(=O)N[C@@H](Cc1ccccc1)C(=O)N[C@@H](CCC(=O)O)C(=O)N[C@@H](CCCNC(=N)N)C(=O)N[C@@H](CC(C)C)C(=O)NC(C)(C)C(=O)N[C@@H](C)C(=O)N[C@@H](CCCCN)C(=O)N[C@@H](CC(C)C)C(N)=O)C(C)C)C(C)C | 99.3% | 27.3%
2 | CC(=O)NCSC[C@H](NC(=O)[C@H]1CCCN1C(=O)[C@H](CCCCN)NC(=O)[C@H](CO)NC(=O)[C@H](CCC(N)=O)NC(=O)[C@H](Cc1ccccc1)NC(C)=O)C(=O)N[C@H](C(=O)N[C@@H](Cc1cnc[nH]1)C(=O)N[C@H](C(=O)N[C@@H](CC(=O)O)C(=O)N[C@H](C)C(=O)N[C@@H](Cc1ccc(O)cc1)C(=O)N[C@@H](Cc1ccccc1)C(=O)N[C@@H](CCC(=O)O)C(=O)N[C@@H](CCCNC(=N)N)C(=O)N[C@@H](CC(C)C)C(=O)NC(C)(C)C(=O)N[C@@H](C)C(=O)N[C@@H](CCCCN)C(=O)N[C@@H](CC(C)C)C(N)=O)C(C)(C)C)C(C)C | 86.2% | 43%
3 | CC(=O)N[C@@H](Cc1ccccc1)C(=O)N[C@@H](CCC(N)=O)C(=O)N[C@@H](CO)C(=O)N[C@@H](CCCCN)C(=O)N1CCC[C@@H]1C(=O)N[C@@H](CC(N)=O)C(=O)N[C@H](C(=O)N[C@@H](Cc1cnc[nH]1)C(=O)N[C@H](C(=O)N[C@@H](CC(=O)O)C(=O)N[C@H](C)C(=O)N[C@@H](Cc1ccc(O)cc1)C(=O)N[C@@H](Cc1ccccc1)C(=O)N[C@@H](CCC(=O)O)C(=O)N[C@@H](CCCNC(=N)N)C(=O)N[C@@H](CC(C)C)C(=O)NC(C)(C)C(=O)N[C@@H](C)C(=O)N[C@@H](CCCCN)C(=O)N[C@@H](CC(C)C)C(N)=O)C(C)(C)C)C(C)C | 100% | 47.2%
4 | CCCC[C@H](NC(=O)C(C)(C)NC(=O)[C@H](CC(C)C)NC(=O)[C@H](CCCNC(=N)N)NC(=O)[C@H](CCC(=O)O)NC(=O)[C@H](Cc1ccccc1)NC(=O)[C@H](Cc1ccc(O)cc1)NC(=O)CNC(=O)[C@H](CC(=O)O)NC(=O)[C@@H](NC(=O)[C@H](Cc1cnc[nH]1)NC(=O)[C@@H](NC(=O)[C@H](CC(N)=O)NC(=O)[C@H]1CCCN1C(=O)[C@H](CCCCN)NC(=O)[C@H](CO)NC(=O)[C@H](CCC(N)=O)NC(=O)[C@H](Cc1ccccc1)NC(C)=O)C(C)C)C(C)(C)C)C(=O)N[C@@H](CCCCN)C(=O)N[C@@H](CC(C)C)C(N)=O | 90.1% | 17%
5 | CC(=O)N[C@@H](Cc1ccccc1)C(=O)N[C@@H](CCC(N)=O)C(=O)N[C@@H](CO)C(=O)N[C@@H](CCCCN)C(=O)N1CCC[C@@H]1C(=O)N[C@@H](CC(N)=O)C(=O)N[C@H](C(=O)N[C@@H](Cc1c[nH]cn1)C(=O)N[C@H](C(=O)N[C@@H](CC(=O)O)C(=O)NCC(=O)N[C@@H](Cc1ccc(O)cc1)C(=O)N[C@@H](Cc1ccccc1)C(=O)N[C@@H](CCC(=O)O)C(=O)N[C@@H](CCCNC(=N)N)C(=O)N[C@@H](CC(C)C)C(=O)NC(C)(C)C(=O)N[C@@H](C)C(=O)N[C@@H](CCCCN)C(=O)N[C@@H](CC(C)C)C(N)=O)C1CCCCC1)C(C)C | 27.6% | 5.4%
6 | CC(=O)N[C@@H](Cc1ccccc1)C(=O)N[C@@H](CCC(N)=O)C(=O)N[C@@H](CO)C(=O)N[C@@H](CCCCN)C(=O)N1CCC[C@@H]1C(=O)N[C@@H](CC(N)=O)C(=O)N[C@H](C(=O)N[C@@H](Cc1cnc[nH]1)C(=O)N[C@H](C(=O)N[C@@H](CC(=O)O)C(=O)NCC(=O)N[C@@H](Cc1ccc(O)cc1)C(=O)N[C@@H](Cc1ccccc1)C(=O)N[C@@H](CCC(=O)O)C(=O)N[C@@H](CCCNC(=N)N)C(=O)N[C@@H](CC(C)C)C(=O)NC(C)(C)C(=O)N[C@@H](C)C(=O)N[C@@H](CCCCN)C(=O)N[C@@H](CC(C)C)C(N)=O)C(C)C)C(C)C | 10 to 27% | 5 to 10%
